Source: US5385833A, “Pseudomonas sp. ATCC No. 49794 alcohol dehydrogenase” (The Scripps Research Institute, priority 1992, dated 1995)

Tested on: Pseudomonas sp. strain PED alcohol dehydrogenase
Test: PED alcohol dehydrogenase enzyme assay, reduction of carbonyl substrates (relative rates)
Format: biochemical
Settings: not given

SMILES | Relative rate
O=C(c1ccccc1)C(F)(F)F [Compound 1, trifluoroacetophenone] | 7
CC(=O)C(=O)c1ccccc1 [Compound 3, 1-phenyl-1,2-propanedione] | 34
COC(=O)CC(=O)CCl [Compound 9, methyl 4-chloro-3-oxobutanoate] | 4
CC(=O)CCC=C(C)C [Compound 10, 6-methyl-5-hepten-2-one] | 6
CC(=O)CCCCl [Compound 11, 5-chloro-2-pentanone] | 5
O=C(CCCCl)c1ccc(F)cc1 [Compound 16] | 0
CC(=O)CCC=C(C)C [Compound 23] | 7
CC(=O)C(Cl)C(C)=O [Compound 26] | 336
COC(=O)CC(C)=O [Compound 27] | 135
CC(=O)CCC(C)=O [Compound 28] | 9
O=C(CCl)CCl [Compound 36] | 6
CC(C)[C@@H]1CC[C@@H](C)CC1=O [Compound 41] | 3.4
CN(C)CCC(=O)c1ccccc1 [Compound 49] | 8
CC(=O)C#Cc1ccccc1 [Compound 51] | < 0.1
CC(=O)/C=C/c1ccccc1 [Compound 54] | 0
CCC(=O)c1ccccc1 [Compound 58] | < 1
CCC(C)=O [Compound 59] | 100
CCCC(C)=O [Compound 60] | 6
CCCCC(C)=O [Compound 61] | 5
C#CC(C)=O [Compound 64, 1-Butyn-3-one] | 1
CC(=O)C(C)Cl (stereo not drawn) [Compound 65] | 11

Same assay, conditions: Table 1; reduction, 10 mM ketone, 0.45 mM NADH, PED, change in absorbance at 340 nm; Compound 2 = 1 (2.1 U/mg enzyme)

SMILES | Relative rate
O=C[C@@H]1C[C@H]1c1ccccc1 (relative stereo) [Compound 5, 1-carboxaldehyde-2-phenylcyclopropane] | 7
CC(=O)c1ccccc1 [Compound 2, acetophenone] | 1
COC(=O)C(=O)c1ccccc1 [Compound 4, methyl benzoylformate] | 4
CC(=O)CCc1ccccc1 [Compound 6, 4-phenyl-2-butanone] | 6
O=C(c1ccccc1)C1CC1 [Compound 7, phenyl cyclopropyl ketone] | < 1
O=C(CCCCl)c1ccccc1 [Compound 8] | 4
CCCCC(=O)c1ccco1 [Compound 12] | < 0.1
CCCCCC(=O)CC [Compound 13, 3-octanone] | 3
O=C(CCl)c1ccc(O)c(O)c1 [Compound 14] | < 0.1
O=C(CCCCl)c1ccc(O)cc1 [Compound 15] | 0
O=C(CCCCl)c1cccs1 [Compound 17] | 4
O=C(CC(=O)C(F)(F)F)c1cccs1 [Compound 18] | 0
CC(=O)c1ccco1 [Compound 19] | 0
COc1coc(C(C)=O)c1OC [Compound 20] | 0.6
O=C1CCCCc2ccccc21 [Compound 21] | 4

Same assay, conditions: Table 2; determined as described in Table 1 (10 mM ketone, 0.45 mM NADH, 340 nm)

SMILES | Relative rate
C=CCCC(C)=O [Compound 22] | 8
COC(C)=CC(C)=O [Compound 24] | 0
CC(=O)CC(C)=O [Compound 25] | 32
CC(=O)CCC(=O)O [Compound 29] | 0
CCCCCC(=O)C(=O)O [Compound 30] | 0
COC(=O)C1CCCC1=O (stereo not drawn) [Compound 31] | 22
CC1C(=O)CCC1=O [Compound 32] | 0
CCOC(=O)CC(=O)CC [Compound 33] | 6
C=CC(=O)CCCCC [Compound 34] | 6
CCCCCC(=O)CC [Compound 35] | 2
C#CC(=O)CCl [Compound 37] | 2
C#CC(=O)CCC(=O)OC [Compound 38, Methyl-4-oxo-5-hexynoate] | < 0.1
C#CC(=O)CCC [Compound 39, 1-Hexyn-3-one] | 0
O=C1C=CCCC1 [Compound 42] | 0
CC1=CC(=O)CCC1 [Compound 43] | 0
O=C1C2CCC(C2)C1Cl (stereo not drawn) [Compound 45] | 2
CC(=O)C1CC2C=CC1C2 (stereo not drawn) [Compound 46] | 0

SMILES | Relative rate
O=C1CC2C=CC1C2 (stereo not drawn) [Compound 47] | 0
CC(=O)COc1ccccc1 [Compound 48] | 7
CCOC(OCC)C(=O)c1ccccc1 [Compound 50] | < 0.1
CC(=O)c1ccc2c(c1)OCCO2 [Compound 52] | 0
CC(=O)c1c[nH]c2ccccc12 [Compound 53] | 0
CC(=O)C1CCc2ccccc2C1=O (stereo not drawn) [Compound 55] | 0
O=C1CCSc2ccccc21 [Compound 56] | 0
CC(=O)c1ccccn1 [Compound 57] | 1.8
CCCCCC(C)=O [Compound 62] | 5
CC(=O)C(C)O (stereo not drawn) [Compound 63] | 2
CC(=O)C1CC1 [Compound 66] | 11
CSC(C)C(C)=O (stereo not drawn) [Compound 67] | 5
CC(=O)C(C)CO (stereo not drawn) [Compound 68] | 0
COC(OC)C(C)=O [Compound 69] | 5
C/C=C/C(C)=O [Compound 70] | < 0.1
CO/C=C/C(C)=O [Compound 71] | 0

Same assay, conditions: footnote b of Table 1; 10 mM ketone, 0.45 mM NADH

SMILES | Rate of reduction corresponding to relative rate 1 [U/mg enzyme]
CC(=O)c1ccccc1 [Compound 2, acetophenone] | 2.1

Same assay, conditions: statement in words on Table 1

SMILES | Substrate quality compared with acetophenone
CC(=O)CCc1ccccc1 [Compound 6, 4-phenyl-2-butanone] | as good a substrate as is acetophenone

Tested on: PED alcohol dehydrogenase
Test: Kinetics and product inhibition of PED alcohol dehydrogenase, oxidation of 2-propanol with NAD
Format: biochemical, Pseudomonas sp. strain PED
Settings: isolated PED alcohol dehydrogenase

SMILES | Km [µM]
CC(C)O [Compound 2-propanol, 2-propanol] | 75
NC(=O)c1ccc[n+]([C@@H]2O[C@H](COP(=O)([O-])OP(=O)(O)OC[C@H]3O[C@@H](n4cnc5c(N)ncnc54)[C@H](O)[C@@H]3O)[C@@H](O)[C@H]2O)c1 [NAD, nicotinamide adenine dinucleotide] | 525

Same assay, conditions: oxidation of 2-propanol

SMILES | Product inhibition type versus 2-propanol | Product inhibition type versus NAD
NC(=O)C1=CN([C@@H]2O[C@H](COP(=O)(O)OP(=O)(O)OC[C@H]3O[C@@H](n4cnc5c(N)ncnc54)[C@H](O)[C@@H]3O)[C@@H](O)[C@H]2O)C=CC1 [NADH, reduced nicotinamide adenine dinucleotide] | noncompetitive inhibitors | competitive inhibition
CC(C)=O [acetone] | noncompetitive inhibitors | noncompetitive inhibition

Same assay, conditions: with respect to 2-propanol under saturating NAD conditions

SMILES | specific activity [U/mg]
CC(C)O [Compound 2-propanol, 2-propanol] | 36
